In patent US12077503B2, “Substituted cyclic amides and their use as herbicides” (FMC CORPORATION, priority 2015, dated 2024):

Tests used:
Experiment in all cases: Test C flooded paddy test
Format in all cases: in vivo
Details in all cases: Flood, 0 is no effect, 100 is complete control
[1] = tested on: barnyardgrass (Echinochloa crus-galli)
How it was run: (§1)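 Plants grown to the 2-leaf stage in pots flooded to 3 cm above soil; compounds applied directly into the paddy water, depth held throughout. After 13 to 15 d in greenhouse, injury visually rated against untreated controls on a 0–100 scale (0 no effect, 100 complete control).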

[2] = tested on: ducksalad (Heteranthera limosa)
How it was run: as §1

[3] = tested on: sedge, umbrella (small-flower umbrella sedge, Cyperus difformis)
How it was run: as §1

rice (Oryza sativa) = tested on: rice (Oryza sativa)
How it was run: as §1

## CN1C[C@H](c2ccc(F)c(F)c2)[C@@H](C(=O)Nc2ccccc2F)C1=O [Compound 596, (3S,4S)-4-(3,4-difluorophenyl)-N-(2-fluorophenyl)-1-methyl-2-oxo-3-pyrrolidinecarboxamide]
[1]; 31 g ai/ha
  Plant response rating (scale of 0 to 100), Barnyardgrass: 0
[1]; 62 g ai/ha
  Plant response rating (scale of 0 to 100), Barnyardgrass: 60
[1]; 125 g ai/ha
  Plant response rating (scale of 0 to 100), Barnyardgrass: 75
[1]; 250 g ai/ha
  Plant response rating (scale of 0 to 100), Barnyardgrass: 85
[2]; 31 g ai/ha
  Plant response rating (scale of 0 to 100), Ducksalad: 30
[2]; 62 g ai/ha
  Plant response rating (scale of 0 to 100), Ducksalad: 60
[2]; 125 g ai/ha
  Plant response rating (scale of 0 to 100), Ducksalad: 90
[2]; 250 g ai/ha
  Plant response rating (scale of 0 to 100), Ducksalad: 100
[3]; 31 g ai/ha
  Plant response rating (scale of 0 to 100), Sedge, Umbrella: 0
[3]; 62 g ai/ha
  Plant response rating (scale of 0 to 100), Sedge, Umbrella: 0
[3]; 125 g ai/ha
  Plant response rating (scale of 0 to 100), Sedge, Umbrella: 0
[3]; 250 g ai/ha
  Plant response rating (scale of 0 to 100), Sedge, Umbrella: 0
Rice (Oryza sativa); 31 g ai/ha
  Plant response rating (scale of 0 to 100), Rice: 0
Rice (Oryza sativa); 62 g ai/ha
  Plant response rating (scale of 0 to 100), Rice: 0
Rice (Oryza sativa); 125 g ai/ha
  Plant response rating (scale of 0 to 100), Rice: 10
Rice (Oryza sativa); 250 g ai/ha
  Plant response rating (scale of 0 to 100), Rice: 10
